Reference: patent EP4782444A1, “CRYSTAL FORM OF PYRIMIDINE ANILINE COMPOUND, PREPARATION METHOD, AND USE” (TYK Medicines, Inc., priority 2023, dated 2025)
≈ marks a conversion by molar mass, not a printed value. Where two headings read alike, the source gives them in different places.

What was measured:
[1] = Solid-state stability study (HPLC and XRPD analysis); assay type: physicochemical
[2] = Pharmacokinetic study in rats, single oral gavage; details: SD rats, 30 mpk; for AUC0-last / Cmax / T1/2 / Tmax: plasma, 30 mg/kg
Experimental: SD rats received a single oral gavage administration of citrate crystalline form I, mesylate crystalline form I, and free base crystalline form I, respectively. Blood samples were collected at various time points to determine drug concentrations in rat plasma post administration of tested substance and calculate PK-related parameters.
The prepared test sample solutions were analyzed by the analytical department of the present test facility using LC-MS/MS.
Animals were fasted (≥10 h) with free access to water from the day before dosing. On the test day, rats were weighed respectively, marked at the tail, and blank blood samples were collected before administration. Blood was collected via tail vein.
0.1 mL of whole blood was collected into EDTA-Na2 anticoagulant tubes, inverted 3-4 times to mix well, centrifuged at 10,000 g, 4 °C for 5 min to separate plasma, and stored at - 80 °C until analysis. Blood was collected via tail vein.
Plasma samples were analyzed by the analytical department of the test facility using LC-MS/MS.

[3] = 37 °C
[4] = physchem
[5] = physchem; remark: listed apart in the source
[6] = day 0 (baseline before storage), mean of 3 parallel experiments

For `C=CC(=O)Nc1cc(Nc2ncc(C(=O)OC(C)C)c(-c3cn(C)c4ccccc34)n2)c(OC)cc1N(C)[C@@H]1[C@@H]2CN(C)C[C@@H]21` [Mesylate crystalline form I], the Appearance ([1]; 25°C/60%RH, day 3) was “Unchanged”, the “Crystalline Form” value ([1]; 25°C/60%RH, day 3, XRPD) was “Unchanged” and the Purity % ([1]; 25°C/60%RH, day 3, open vial) was 98.19%. The Appearance ([1]; 25°C/60%RH, day 7) was “Unchanged”, the “Crystalline Form” value ([1]; 25°C/60%RH, day 7, XRPD) was “Unchanged” and the Purity % ([1]; 25°C/60%RH, day 7, open vial) was 98.24%. For the same compound, the Appearance ([1]; 25°C/95±5%RH, day 3) was “Unchanged”, the “Crystalline Form” value ([1]; 25°C/95±5%RH, day 3, XRPD) was “Unchanged” and the Purity % ([1]; 25°C/95±5%RH, day 3, open vial) was 98.17%. For the same compound, the Appearance ([1]; 25°C/95±5%RH, day 7) was “Unchanged”, the “Crystalline Form” value ([1]; 25°C/95±5%RH, day 7, XRPD) was “Unchanged” and the Purity % ([1]; 25°C/95±5%RH, day 7, open vial) was 98.20%. The Appearance ([1]; 40°C/75%RH, day 3) was “Unchanged”, the “Crystalline Form” value ([1]; 40°C/75%RH, day 3, XRPD) was “Unchanged” and the Purity % ([1]; 40°C/75%RH, day 3, open vial) was 98.17%. For the same compound, the Appearance ([1]; 40°C/75%RH, day 7) was “Unchanged”, the “Crystalline Form” value ([1]; 40°C/75%RH, day 7, XRPD) was “Unchanged” and the Purity % ([1]; 40°C/75%RH, day 7, open vial) was 98.16%. The Appearance ([1]; 60 °C, day 3) was “Unchanged”, the “Crystalline Form” value ([1]; 60 °C, day 3, XRPD) was “Unchanged” and the Purity % ([1]; 60 °C, day 3, open vial) was 98.15%. The Appearance ([1]; 60 °C, day 7) was “Unchanged”, the “Crystalline Form” value ([1]; 60 °C, day 7, XRPD) was “Unchanged” and the Purity % ([1]; 60 °C, day 7, open vial) was 98.12%. For the same compound, the Appearance ([1]; 80 °C, day 1) was “Unchanged”, the “Crystalline Form” value ([1]; 80 °C, day 1, XRPD) was “Unchanged” and the Purity % ([1]; 80 °C, day 1, open vial) was 98.38%. The Appearance ([1]; 80 °C, day 3) was “Unchanged”, the “Crystalline Form” value ([1]; 80 °C, day 3, XRPD) was “Unchanged” and the Purity % ([1]; 80 °C, day 3, open vial) was 98.24%. The Purity % [1, 6] was 98.50%, the Crystalline Form ([1]; under all five storage conditions) was “remained unchanged” and the “in vivo exposure in rats compared with free base crystalline form I” value [2] was “higher”. The “AUC0-last” value [2] was 1811.31 ng·h/mL, the “Cmax” value [2] was 222.5 ng/mL and the “T1/2” value [2] was 2.54 h. For the same compound, the “Tmax” value [2] was 3 h, the “Solubility” value ([3]; FaSSIF, 0.5 h, 30 min) was over 5000 µg/mL and the “Solubility” value ([3]; FaSSIF, 2 h, 120 min) was over 5000 µg/mL. For the same compound, the “Solubility” value ([3]; FaSSIF, 24 h, 1440 min) was 3410 µg/mL, the “Solubility” value ([3]; H2O, 0.5 h, 30 min) was over 5000 µg/mL and the “Solubility” value ([3]; H2O, 2 h, 120 min) was over 5000 µg/mL. The “Solubility” value ([3]; H2O, 24 h, 1440 min) was over 5000 µg/mL, the solubility at 0.5 h ([4]; fessif) was over 5010 µg/mL and the solubility at 2 h ([4]; fessif) was over 5010 µg/mL. The solubility at 24 h ([4]; fessif) was over 5010 µg/mL, the solubility at 0.5 h ([4]; sgf) was over 5000 µg/mL and the solubility at 2 h ([4]; sgf) was over 5000 µg/mL. The solubility at 24 h ([4]; sgf) was over 5000 µg/mL.
For `C=CC(=O)Nc1cc(Nc2ncc(C(=O)OC(C)C)c(-c3cn(C)c4ccccc34)n2)c(OC)cc1N(C)[C@@H]1[C@@H]2CN(C)C[C@@H]21` [Free base crystalline form I], the “AUC0-last” value [2] was 1122.05 ng·h/mL, the “Cmax” value [2] was 126.5 ng/mL and the “T1/2” value [2] was 2.19 h. For the same compound, the “Tmax” value [2] was 4 h, the “Solubility” value ([3]; FaSSIF, 0.5 h, 30 min) was 130 µg/mL (≈ 0.213 mM) and the “Solubility” value ([3]; FaSSIF, 2 h, 120 min) was 130 µg/mL (≈ 0.213 mM). For the same compound, the “Solubility” value ([3]; FaSSIF, 24 h, 1440 min) was 180 µg/mL (≈ 0.295 mM), the “Solubility” value ([3]; FeSSIF, 0.5 h, 30 min) was 3530 µg/mL (≈ 5.79 mM) and the “Solubility” value ([3]; FeSSIF, 2 h, 120 min) was over 5020 µg/mL. The “Solubility” value ([3]; FeSSIF, 24 h, 1440 min) was over 5020 µg/mL, the “Solubility” value ([3]; H2O, 0.5 h, 30 min) was 10 µg/mL (≈ 0.0164 mM) and the “Solubility” value ([3]; H2O, 2 h, 120 min) was 10 µg/mL (≈ 0.0164 mM). The “Solubility” value ([3]; H2O, 24 h, 1440 min) was 10 µg/mL (≈ 0.0164 mM), the “Solubility” value ([3]; SGF, 0.5 h, 30 min) was over 5000 µg/mL and the “Solubility” value ([3]; SGF, 2 h, 120 min) was over 5000 µg/mL. The “Solubility” value ([3]; SGF, 24 h, 1440 min) was over 5000 µg/mL, the Solubility ([5]; 1,4-dioxane) was under 270 µg/mL and the Solubility ([5]; acetone) was 2220 to 4440 µg/mL (≈ 3.64 to 7.28 mM). For the same compound, the Solubility ([5]; acetonitrile) was 930 to 1010 µg/mL (≈ 1.53 to 1.66 mM), the Solubility ([5]; cyclohexane) was under 330 µg/mL and the Solubility ([5]; dce) was 61800 to 124000 µg/mL (≈ 101 to 203 mM). It also gave a Solubility ([5]; dcm) of over 107000 µg/mL, a Solubility ([5]; dmso) of 2600 to 2930 µg/mL (≈ 4.26 to 4.81 mM) and a Solubility ([5]; ethanol) of under 300 µg/mL. It also gave a Solubility ([5]; ethyl acetate) of under 290 µg/mL, a Solubility ([5]; heptane) of under 300 µg/mL and a Solubility ([5]; ipac) of under 300 µg/mL. The Solubility ([5]; isopropanol) was under 350 µg/mL, the Solubility ([5]; mek) was 2780 to 4440 µg/mL (≈ 4.56 to 7.28 mM) and the Solubility ([5]; meoh) was under 400 µg/mL. The Solubility ([5]; mtbe) was under 330 µg/mL, the Solubility ([5]; nmp) was 18200 to 27400 µg/mL (≈ 29.9 to 44.9 mM) and the Solubility ([5]; thf) was 2550 to 3190 µg/mL (≈ 4.18 to 5.23 mM). For the same compound, the Solubility ([5]; water) was under 270 µg/mL.
With `C=CC(=O)Nc1cc(Nc2ncc(C(=O)OC(C)C)c(-c3cn(C)c4ccccc34)n2)c(OC)cc1N(C)[C@@H]1[C@@H]2CN(C)C[C@@H]21` [Maleate crystalline form II] the Appearance ([1]; 25°C/60%RH, day 3) was “Unchanged”, the “Crystalline Form” value ([1]; 25°C/60%RH, day 3, XRPD) was “Unchanged” and the Purity % ([1]; 25°C/60%RH, day 3, open vial) was 98.68%. The Appearance ([1]; 25°C/60%RH, day 7) was “Unchanged”, the “Crystalline Form” value ([1]; 25°C/60%RH, day 7, XRPD) was “Unchanged” and the Purity % ([1]; 25°C/60%RH, day 7, open vial) was 98.66%. For the same compound, the Appearance ([1]; 25°C/95±5%RH, day 3) was “Unchanged”, the “Crystalline Form” value ([1]; 25°C/95±5%RH, day 3, XRPD) was “Unchanged” and the Purity % ([1]; 25°C/95±5%RH, day 3, open vial) was 98.66%. The Appearance ([1]; 25°C/95±5%RH, day 7) was “Unchanged”, the “Crystalline Form” value ([1]; 25°C/95±5%RH, day 7, XRPD) was “Changed” and the Purity % ([1]; 25°C/95±5%RH, day 7, open vial) was 98.67%. The Appearance ([1]; 40°C/75%RH, day 3) was “Unchanged”, the “Crystalline Form” value ([1]; 40°C/75%RH, day 3, XRPD) was “Unchanged” and the Purity % ([1]; 40°C/75%RH, day 3, open vial) was 98.67%. The Appearance ([1]; 40°C/75%RH, day 7) was “Unchanged”, the “Crystalline Form” value ([1]; 40°C/75%RH, day 7, XRPD) was “Unchanged” and the Purity % ([1]; 40°C/75%RH, day 7, open vial) was 98.64%. For the same compound, the Appearance ([1]; 60 °C, day 3) was “Unchanged”, the “Crystalline Form” value ([1]; 60 °C, day 3, XRPD) was “Unchanged” and the Purity % ([1]; 60 °C, day 3, open vial) was 98.66%. For the same compound, the Appearance ([1]; 60 °C, day 7) was “Unchanged”, the “Crystalline Form” value ([1]; 60 °C, day 7, XRPD) was “Unchanged” and the Purity % ([1]; 60 °C, day 7, open vial) was 98.68%. The Appearance ([1]; 80 °C, day 1) was “Unchanged”, the “Crystalline Form” value ([1]; 80 °C, day 1, XRPD) was “Unchanged” and the Purity % ([1]; 80 °C, day 1, open vial) was 98.77%. For the same compound, the Appearance ([1]; 80 °C, day 3) was “Unchanged”, the “Crystalline Form” value ([1]; 80 °C, day 3, XRPD) was “Unchanged” and the Purity % ([1]; 80 °C, day 3, open vial) was 98.66%. The Crystalline Form ([1]; after 7 days, 25 °C /90±5%RH) was “transformed into an unstable hydrate of maleate”, the Purity % [1, 6] was 98.83% and the “changes under other conditions” value ([1]; storage conditions other than 25 °C /90±5%RH) was “no significant changes were observed”. For the same compound, the “Solubility” value ([3]; FaSSIF, 0.5 h, 30 min) was over 5030 µg/mL, the “Solubility” value ([3]; FaSSIF, 2 h, 120 min) was over 5030 µg/mL and the “Solubility” value ([3]; FaSSIF, 24 h, 1440 min) was 3450 µg/mL. For the same compound, the “Solubility” value ([3]; FeSSIF, 0.5 h, 30 min) was over 5010 µg/mL, the “Solubility” value ([3]; FeSSIF, 2 h, 120 min) was over 5010 µg/mL and the “Solubility” value ([3]; FeSSIF, 24 h, 1440 min) was over 5010 µg/mL. The “Solubility” value ([3]; H2O, 0.5 h, 30 min) was 1640 µg/mL, the “Solubility” value ([3]; H2O, 2 h, 120 min) was 1620 µg/mL and the “Solubility” value ([3]; H2O, 24 h, 1440 min) was 1840 µg/mL. The “Solubility” value ([3]; SGF, 0.5 h, 30 min) was over 5010 µg/mL, the “Solubility” value ([3]; SGF, 2 h, 120 min) was over 5010 µg/mL and the “Solubility” value ([3]; SGF, 24 h, 1440 min) was over 5010 µg/mL.
